Laboratory results taken from patent US20210169911A1, “PURINE AND PYRIMIDINE NUCLEOTIDES AS ECTO-5'-NUCLEOTIDASE INHIBITORS” (The United States of America,as represented by the …, priority 2018, published 2021).
Where a name gives a salt, the structure may show the parent alone. Read-outs that look alike come from different tables or passages of the source.

What was measured:
[1] = biological target: T1, recombinant soluble rat CD73 (Rattus norvegicus, UniProt P21588); assay: Radiometric rat ecto-5′-nucleotidase (CD73) assay with [3H]AMP; conditions: for % inhibition at indicated concentration, rat CD73: initial screening concentration 1 μM
T1 sequence (P21588 29-551 limits assumed): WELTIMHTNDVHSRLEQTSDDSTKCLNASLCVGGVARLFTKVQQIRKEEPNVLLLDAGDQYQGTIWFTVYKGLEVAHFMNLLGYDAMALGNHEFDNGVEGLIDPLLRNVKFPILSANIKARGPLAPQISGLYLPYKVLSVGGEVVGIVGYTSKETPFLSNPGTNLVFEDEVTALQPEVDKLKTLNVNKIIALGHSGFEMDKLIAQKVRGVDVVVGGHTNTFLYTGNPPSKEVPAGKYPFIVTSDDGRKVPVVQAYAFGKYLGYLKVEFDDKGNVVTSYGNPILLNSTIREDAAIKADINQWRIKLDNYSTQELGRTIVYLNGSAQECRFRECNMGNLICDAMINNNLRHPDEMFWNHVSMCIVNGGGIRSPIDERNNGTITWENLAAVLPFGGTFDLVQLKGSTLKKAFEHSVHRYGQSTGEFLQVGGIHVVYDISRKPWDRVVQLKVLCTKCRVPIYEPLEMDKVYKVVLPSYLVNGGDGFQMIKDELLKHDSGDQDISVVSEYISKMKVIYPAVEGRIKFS
Method: After the enzymatic reaction, the substrate was separated from its product [2,8-^3H]adenosine by precipitation with lanthanum chloride followed by filtration through glass fiber filters (34). […] Ki values were calculated from the obtained IC50 values using the Cheng-Prusoff equation (6,7).
The assay was performed as previously described (41) using recombinant rat CD73 expressed in Sf9 insect cells (33). […] The mixture was incubated for 25 min at 37° C. The reaction was stopped by adding 500 μL of ice-cooled precipitation buffer containing 100 mM aqueous lanthanum chloride and 100 mM aqueous sodium acetate solution (pH 4.0). After 30 min, the precipitation was filtered through GF/B glass fiber filters (M-48, Brandel, Gaithersburg, Md., USA). After washing three times, 4 mL of the scintillation cocktail ULTIMA Gold XR was added and then quantified by scintillation counting (TRICARB 2900 TR, Packard/PerkinElmer). Three separate inhibition assays were performed in triplicate, concentration-response curves were fitted, and Ki values were calculated.
The assay was performed essentially as previously described.^D Stock solutions (10 mM) of the compounds were prepared in demineralized water and further dilutions were performed in assay reaction buffer (25 mM Tris, 140 mM sodium chloride, 25 mM sodium dihydrogen phosphate, pH 7.4). 10 μL of the inhibitor solution were added to 70 μL of assay reaction buffer. […] The enzymatic reaction was performed for 25 min at 37° C. in a shaking water bath. […] After the precipitation was completed (after at least 30 min on ice), the mixture was separated by filtration through GF/B glass fiber filters using a cell harvester (M-48, Brandel, Gaitherburg, Md., USA). After washing each reaction vial three times with 400 μl of cold (4° C.) demineralized water, 5 ml of the scintillation cocktail (ULTIMA Gold XR, PerkinElmer, MA, USA) was added and radioactivity was measured by scintillation counting (TRICARB 2900 TR, Packard/PerkinElmer; counting efficacy: 49-52%). Two controls were included and measured as duplicates. One reaction was performed without the inhibitor resulting in 100% enzyme activity (positive control) and one was incubated without the inhibitor and the enzyme and served as background control. The resulting data were subtracted from the background and were normalized with to the positive control. The results were plotted, and concentration-inhibition curves were fitted with GraphPad Prism 5 (GraphPad Software, La Jolla, USA).
After 30 min, the precipitation was filtered through GF/B glass fiber filters (M-48, Brandel, Gaithersburg, Md., USA). After washing three times, 4 mL of the scintillation cocktail ULTIMA Gold XR was added and then quantified by scintillation counting (TRICARB 2900 TR, Packard/PerkinElmer). Three separate inhibition assays were performed in triplicate, concentration-response curves were fitted, and K, values were calculated.

[2] = Stability in aqueous solution; format: physicochemical; conditions: decomposes to UOPCP (4a)
Method: Cytidine derivatives varying at the 2′-position (7a and 7b), as well as at the 5-position (7c-e), were prepared as depicted in Scheme 2. […] The required nucleosides were prepared by either reacting cytidine (6a), 2′-deoxycytidine (6b), 5-fluorocytidine (6d) or 5-methylcytidine (6e) with respective alkoxyamino derivatives in pyridine^8 followed by phosphonylation reaction to afford compounds 9a-f, or by reacting cytidine (6a) with benzyloxyamine, followed by nucleophilic substitution at the 3-position and subsequent 5′-O-phosphonylation of the nucleosides to afford compounds 9h and 9i (Scheme 2). Furthermore, 3-deazauridine-5′-α,β-methylene-diphosphate (10), (S)-methanocarba-5′-α,β-methylene-diphosphate (11) and the ethyl ester of 2-thio-UDP (12) (7) were prepared to extend the exploration of SARs of the nucleotide analogs as CD73 inhibitors. All phosphonate-substituted nucleotides were purified to homogeneity by ion exchange chromatography followed by reverse phase C18 HPLC.

[3] = tested on: recombinant soluble human CD73; assay: Radiometric CD73 inhibition assay, recombinant soluble human CD73; format: biochemical; conditions: human vs rat CD73 Ki, Table 5
Method: (§1) The cDNA for the soluble human CD73 (Genbank accession no. NM_002526) was obtained from Prof. Dr. Norbert Sträter (University of Leipzig, Germany) (3). […] Sf9 insect cells were grown in Insect-[…] media (#: BE12-[…], Lonza, Switzerland) with 10 mg/l gentamicin and split at a ratio of 1:3 every fourth day. For transfection, cells were seeded into cell culture flasks (25 cm^2) at 60-70% confluence. 100 μl of cell medium and 1 μl of the vector DNA (1000 ng/μ1) were mixed with 2.5 μl of baculovirus genomic ProEasyTM vector DNA (AB vector, CA, USA) and combined with premixed 100 μl of cell medium and 8 μl of CellfectinTM II Reagent (Thermo Fisher Scientific, MA, USA). […] The cells were incubated for 30 min at rt, and for further 4 days at 27° C. Cells from the transfection procedure were detached from the bottom of the flasks and centrifuged for 5 min at 2000 g. 1.5 ml of the supernatant (viral stock) was added to 75 cm^2 cell culture flasks containing Sf9 cells (60-70% confluence), and the cells were incubated for four days at 27° C. Then 1.5 ml of the supernatant were taken and added to uninfected Sf9 cells in a 75 cm^2 flask. This was repeated five more times, using more cells and larger flasks after the third round of infections (150 cm^2 to which 3.0 ml of supernatant were added). The stock P8 was finally used for infection of the cells. For protein expression, 3 ml of the virus solution were used to infect 150 ml of cell media containing 2×10^6 cells/ml in a 500 ml Erlenmeyer flask, and they were incubated for 4 days at 27° C. with shaking (150 rpm). Then, cell suspensions were transferred to 50 ml falcon tubes and centrifuged at 15 min at 5000 g at 4° C. The supernatants were subjected to ultrafiltration using Amicon® Ultra-15, 10 kDa cut-off (Merck Millipore, MA, USA) at 5000 g for 15-30 min at 4° C. The concentrated protein was purified with HisPurTM Ni^2+-NTA spin columns (#: 88226, Thermo Fisher Scientific, MA, USA). The elution of the columns was performed as recommended in the instruction manual with adjusting the incubation time for protein binding to 1 h at 4° C. with an end-over-end mixer and an additional incubation step of 5 min with the elution buffer before eluting. Eluates were pooled and dialyzed (Membra-Cer, 14 kDa cut-off, 250 mm×44 mm×0.02 mm; Carl Roth, Germany) at 4° C. in 25 mM Tris, pH 7.4, with a volume adjusted to 40 times the volume of the elution fraction. […] The enzyme was aliquoted and stored at -80° C. until use.

[4] = biological target: T2, recombinant soluble human CD73 (Homo sapiens, UniProt P21589); assay: as above; format: biochemical; conditions: Table 6; for Ki: human soluble CD73, read-out: Ki at hCD73
T2 construct: 6xHis (C); secretion signal peptide of vector pACGP67B (N); made in house; host or cells: Sf9 insect cells (baculovirus)
T2 sequence (P21589 28-549): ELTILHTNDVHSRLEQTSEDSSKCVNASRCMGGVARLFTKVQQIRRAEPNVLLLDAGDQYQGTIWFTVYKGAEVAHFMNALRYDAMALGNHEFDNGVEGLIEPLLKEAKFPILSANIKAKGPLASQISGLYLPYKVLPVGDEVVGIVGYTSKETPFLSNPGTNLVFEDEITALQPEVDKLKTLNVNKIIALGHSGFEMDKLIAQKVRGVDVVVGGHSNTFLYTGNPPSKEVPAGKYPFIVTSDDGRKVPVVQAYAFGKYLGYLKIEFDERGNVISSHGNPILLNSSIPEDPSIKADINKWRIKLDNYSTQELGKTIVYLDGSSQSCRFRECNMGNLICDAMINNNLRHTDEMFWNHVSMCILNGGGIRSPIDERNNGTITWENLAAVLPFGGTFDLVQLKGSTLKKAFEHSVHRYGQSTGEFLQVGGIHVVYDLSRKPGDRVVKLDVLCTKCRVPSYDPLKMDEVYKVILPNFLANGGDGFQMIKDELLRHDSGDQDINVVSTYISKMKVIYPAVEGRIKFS
Method: as §1

[5] = read-out: Ki ± SEM (nM), rat CD73, Table 3, recombinant soluble rat CD73, 5 μM [3H]AMP

Molecule	Ki [1, 5] [nM]	Ki [4] [µM]	other results
Nc1ccnc2c1ncn2[C@@H]1O[C@H](COP(=O)(O)CP(=O)(O)O)[C@@H](O)[C@H]1O [Compound 2e, 1-Deazaadenosine-5′-O-[(phosphonomethyl)phosphonic acid]]	> 1000	–	% inhibition at indicated concentration, rat CD73 ([1]; Table 3): 36%
Nc1nccc2c1ncn2[C@@H]1O[C@H](COP(=O)(O)CP(=O)(O)O)[C@@H](O)[C@H]1O [Compound 2f, 3-Deazaadenosine-5′-O-[(phosphonomethyl)phosphonic acid]]	> 1000	–	% inhibition at indicated concentration, rat CD73 ([1]; Table 3): 36%
Nc1ncnc2c1ccn2[C@@H]1O[C@H](COP(=O)(O)CP(=O)(O)O)[C@@H](O)[C@H]1O [Compound 2g, 7-Deazaadenosine-5′-O-[(phosphonomethyl)phosphonic acid]]	88.6 ± 4	–	–
O=C(Nc1ccn([C@@H]2O[C@H](COP(=O)(O)CP(=O)(O)O)C(O)C2O)c(=O)n1)c1ccccc1 (stereo partly shown) [Compound 7f, 4-Benzoylcytidine-5′-O-[(phosphonomethyl)phosphonic acid]]	–	–	decomposition in aqueous solution [2]: rapid decomposition; decomposition in aqueous solution ([2]; listed as 71): decomposition in aqueous solution
O=c1[nH]c(=NOCc2ccccc2)c(F)cn1C1OC(COP(=O)(O)CP(=O)(O)O)C(O)C1O (stereo not shown) [Compound 9g, N^4-[O-(4-Benzyloxy)]-5-fluoro-cytidine-5′-O-[(phosphonomethyl)phosphonic acid]]	–	–	potency at human CD73 as compared to the rat enzyme [3]: 5 fold
CCn1c(=O)n([C@@H]2O[C@H](COP(=O)(O)CP(=O)(O)O)[C@@H](O)[C@H]2O)cc/c1=N/OCc1ccccc1 [Compound 9i, N^4-[O-(4-Benzyloxy)]-3-ethyl-cytidine-5′-O-[(phosphonomethyl)phosphonic acid]]	–	–	Ki [1]: 262 ± 46 nM
Cn1c(=O)n([C@@H]2O[C@H](COP(=O)(O)CP(=O)(O)O)[C@@H](O)[C@H]2O)cc/c1=N/OCc1cccc(Cl)c1 [Compound 106, N^4-(3-Chlorobenzyloxy)-3-methylcytidine-5′-α,β-methylenediphosphate triethylammonium salt]	–	0.00161 ± 9e-05	–
Cn1c(=O)n([C@@H]2O[C@H](COP(=O)(O)CP(=O)(O)O)[C@@H](O)[C@H]2O)cc/c1=N/OCc1cccc(C(F)(F)F)c1 [Compound 107, N^4-((3-Trifluoromethyl)benzyloxy)-3-methyleytidine-5′-α,β-methylenediphosphate triethylammonium salt]	–	0.00144 ± 9e-05	–
C#Cc1ccc(CO/N=c2/ccn([C@@H]3O[C@H](COP(=O)(O)CP(=O)(O)O)[C@@H](O)[C@H]3O)c(=O)n2C)cc1 [Compound 114, N^4-(4-Ethynylbenzyloxy)-3-methyleytidine-5′-α,β-methylenediphosphate triethylammonium salt]	–	0.000664 ± 8.9e-05	–
Cn1c(=O)n([C@@H]2O[C@H](COP(=O)(O)CP(=O)(O)O)[C@@H](O)[C@H]2O)cc/c1=N/OCc1ccc(-c2cn(CCF)nn2)cc1 [Compound 120, N^4-(4-(1-(2-Fluoroethyl)-1H-1,2,3-triazol-4-yl)benzyloxy)-3-methylcytidine-5′-α,β-methylenediphosphate triethylammonium salt]	–	0.000627 ± 9.9e-05	–
CCN(CC)CC.CCN(CC)CC.O=c1ccn([C@H]2[C@H](O)[C@H](O)C3(COP(=O)(O)CP(=O)(O)O)C[C@H]23)c(=O)[nH]1 (stereo partly drawn) [Compound 121, (((((2R,3S,4R,5S)-4-(2,4-Dioxo-3,4-dihydropyrimidin-1(2H)-yl)-2,3-dihydroxy-1λ^5-bicyclo[3.1.0]hexan-1-yl)methoxy)(hydroxy)phosphoryl)methyl)phosphonic Acid Triethylammonium Salt]	–	–	inhibition of hCD73 ([4]; at 50 μM): 35% inhibition
Nc1ncnc2c1ncn2[C@@H]1O[C@H](COP(=O)(O)CP(=O)(O)O)[C@@H](O)[C@H]1O [I, reference compound]	167 ± 53	–	–
(((((2R,3S,4R,5S)-4-((Z)-4-(((4-Chlorobenzyl)oxy)imino)-3-methyl-2-oxo-3,4-dihydropyrimidin-1(2H)-yl)-2,3-dihydroxy-1V-bicyclo[3.1.0]hexan-1-yl)methoxy)(hydroxy)phosphoryl)methyl)phosphonic Acid Triethylammonium Salt [Compound 122]	–	0.0592 ± 0.00558	–
